Tests used:
Assay in all cases: POST trolley belt sprayer test (Example 3)
Details in all cases: 600 g/ha, 14 DAT
BYG (Barnyardgrass) = format: in vivo, Echinochloa crus-galli
Procedure: (§1) All POST crops and weeds plants were grown into separate square pots which measured 10×10 cm. The soil used was amended with Redi-Eartho Plug and Seedling Mix in a one to one ratio. Ten to twenty seeds per small seeded species were planted per pot. Five to ten seeds were planted with large seeded species. Seeds were sown 0.5 inches deep. Generally, POST plants were 7 to 21 days old (from planting) when sprayed. Grasses were in the 2-4 leaf stage and broadleaf weeds were in the 1-2 true leaf stage.
(§2) The spray volume was 50 gallons per acre (468 I/Ha). Rates of application (grams per hectare) varied depending on the concentration of chemical within each individual spray solution. Technical samples were dissolved in acetone. Formulations are suspended in water. All applications were made using a trolley belt sprayer. The test plants were placed on the belt inside the spray hood. Then the spray nozzle which is attached to the trolley, moves mechanically over the top of the plants. The spray nozzle delivers a flat fan spray pattern and is a typical nozzle used in herbicide field applications. The belt carries the plants out of the spray hood and into a drying chamber.
(§3) After spray application, the test plants were placed in a vented cabinet until dry, then placed in the greenhouse. […] The trolley sprayer settings were as follows (50 (GPA) Gallons Per Acre or (468 L/Ha): […]

RI (Rice) = format: in vivo, Oryza sativa
Procedure: as §1, §2, §3

VEL (Velvetleaf) = format: in vivo, Abutilon theophrasti
Procedure: as §1, §2, §3

[1] = tested on: Grassy Weeds (Avg Monocot); format: in vivo
Procedure: as §1, §2, §3

[2] = tested on: Broadleaf Weeds (Avg Dicot); format: in vivo
Procedure: as §1, §2, §3

SPR (Sprangletop) = format: in vivo, Leptochloa dubia
Procedure: as §1, §2, §3

BID (Bidens) = format: in vivo, Bidens pilosa
Procedure: as §1, §2, §3

SIG (Signalgrass) = format: in vivo, Brachiaria platyphylla
Procedure: as §1, §2, §3

FOX (Foxtail) = format: in vivo, Setaria viridis
Procedure: as §1, §2, §3

TEA (Teaweed) = format: in vivo, Sida spinosa
Procedure: as §1, §2, §3

BP (Blue panicum) = format: in vivo, Panicum antidotale
Procedure: as §1, §2, §3

WHT (Wheat) = format: in vivo, Triticum spp.
Procedure: as §1, §2, §3

NS (Nightshade) = format: in vivo, Solanum nigrum
Procedure: as §1, §2, §3

CKL (Cocklebur) = format: in vivo, Xanthium pensylvanicum
Procedure: as §1, §2, §3

CN (Corn) = format: in vivo, Zea mays
Procedure: as §1, §2, §3

MG (Morningglory) = format: in vivo, Ipomoea hederacea
Procedure: as §1, §2, §3

SMT (Smartweed) = format: in vivo, Polygonum lapathifolium
Procedure: as §1, §2, §3

CRB (Crabgrass) = format: in vivo, Digitaria sanguinalis
Procedure: as §1, §2, §3

NUT (Nutsedge) = format: in vivo, Cyperus esculentus
Procedure: as §1, §2, §3

COT (Cotton) = format: in vivo, Gossypium hirsutum
Procedure: as §1, §2, §3

RYE (Ryegrass) = format: in vivo, Lolium multiflorum
Procedure: as §1, §2, §3

SOY (Soybean) = format: in vivo, Glycine max
Procedure: as §1, §2, §3

PIG (Pigweed) = format: in vivo, Amaranthus retroflexus
Procedure: as §1, §2, §3

C[n+]1ccc(-c2cc[n+](C)cc2)cc1 [Paraquat]
98%: % POST Control of Broadleaf Weeds, Avg Dicot [2]
93%: % POST Control of Grassy Weeds, Avg Monocot [1]
100%: % Crop Injury (RI (Rice)) | % POST Control of Broadleaf Weeds (VEL (Velvetleaf)) | % POST Control of Grassy Weeds (SPR (Sprangletop)) | % POST Control of Broadleaf Weeds (BID (Bidens)) | % POST Control of Grassy Weeds (BP (Blue panicum)) | % Crop Injury (WHT (Wheat)) | % POST Control of Broadleaf Weeds (NS (Nightshade)) | % POST Control of Broadleaf Weeds (CKL (Cocklebur)) | % POST Control of Broadleaf Weeds (MG (Morningglory)) | % POST Control of Broadleaf Weeds (SMT (Smartweed)) | % Crop Injury (COT (Cotton)) | % POST Control of Grassy Weeds (RYE (Ryegrass)) | % Crop Injury (SOY (Soybean)) | % POST Control of Broadleaf Weeds (PIG (Pigweed))
95%: % POST Control of Grassy Weeds (BYG (Barnyardgrass))
85%: % POST Control of Grassy Weeds (SIG (Signalgrass)) | % POST Control of Broadleaf Weeds (TEA (Teaweed)) | % Crop Injury (CN (Corn)) | % POST Control of Grassy Weeds (NUT (Nutsedge))
90%: % POST Control of Grassy Weeds (FOX (Foxtail)) | % POST Control of Grassy Weeds (CRB (Crabgrass))
